Experimental data taken from patent publication US20130217664A1, “NOVEL COMPOUNDS USEFUL FOR THE TREATMENT OF DEGENERATIVE AND INFLAMMATORY DISEASES” (priority 2012, published 2013).
Blank lines part the entries; values can stand above or below the compound they belong to.

What was measured:
Type in all cases: biochemical
human JAK1 = biological target: T1, human JAK1 (Homo sapiens, UniProt P23458); assay: JAK1 inhibition assay (polyGT substrate / Ulight-JAK1 peptide); settings: recombinant human JAK1 catalytic domain; polyGT or Ulight-JAK1 peptide assay
T1 construct: catalytic domain, amino acids 866-1154; catalog number PV4774; purchased Invitrogen PV4774
T1 sequence (P23458 866-1154): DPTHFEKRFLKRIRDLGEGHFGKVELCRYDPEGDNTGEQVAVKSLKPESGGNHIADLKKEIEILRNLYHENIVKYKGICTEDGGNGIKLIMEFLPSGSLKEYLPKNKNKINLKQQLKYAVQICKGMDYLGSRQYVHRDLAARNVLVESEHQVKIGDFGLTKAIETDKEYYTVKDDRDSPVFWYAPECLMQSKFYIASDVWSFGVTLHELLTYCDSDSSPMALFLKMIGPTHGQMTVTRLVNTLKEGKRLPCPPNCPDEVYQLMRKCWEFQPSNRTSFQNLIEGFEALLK
How it was run: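 Signal scaled between vehicle and 10 μM staurosporine. Radiometric polyGT reactions ran 45 min at 30 °C, counted after phosphoric-acid stop. Ulight peptide reactions ran 60 min at room temperature, fluorescence read after adding Eu-PT66 detection mix with EDTA.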

human TYK2 = biological target: T2, human TYK2 (Homo sapiens, UniProt P29597); assay: TYK2 inhibition assay; settings: recombinant human TYK2 catalytic domain, polyGT substrate
T2 construct: catalytic domain (amino acids 871-1187; catalog number 08-147); purchased Carna Biosciences 08-147
T2 sequence (P29597 871-1187): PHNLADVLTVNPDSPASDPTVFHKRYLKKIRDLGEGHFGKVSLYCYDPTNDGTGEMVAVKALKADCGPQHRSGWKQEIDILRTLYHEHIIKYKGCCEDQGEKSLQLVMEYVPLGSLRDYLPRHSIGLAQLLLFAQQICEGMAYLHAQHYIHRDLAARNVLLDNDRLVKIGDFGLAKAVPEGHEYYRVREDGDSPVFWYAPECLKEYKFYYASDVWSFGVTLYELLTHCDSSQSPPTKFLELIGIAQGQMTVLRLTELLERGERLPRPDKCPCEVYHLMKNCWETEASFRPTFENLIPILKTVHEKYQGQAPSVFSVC
How it was run: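 Radiometric kinase reaction run 90 min at 30 °C, stopped with phosphoric acid, washed and scintillation-counted.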

human JAK3 = biological target: T3, human JAK3 (Homo sapiens, UniProt P52333); assay: JAK3 inhibition assay; settings: recombinant human JAK3 catalytic domain; polyGT substrate
T3 construct: catalytic domain (amino acids 781-1124; catalog number PV3855); purchased Invitrogen PV3855
T3 sequence (P52333 781-1124): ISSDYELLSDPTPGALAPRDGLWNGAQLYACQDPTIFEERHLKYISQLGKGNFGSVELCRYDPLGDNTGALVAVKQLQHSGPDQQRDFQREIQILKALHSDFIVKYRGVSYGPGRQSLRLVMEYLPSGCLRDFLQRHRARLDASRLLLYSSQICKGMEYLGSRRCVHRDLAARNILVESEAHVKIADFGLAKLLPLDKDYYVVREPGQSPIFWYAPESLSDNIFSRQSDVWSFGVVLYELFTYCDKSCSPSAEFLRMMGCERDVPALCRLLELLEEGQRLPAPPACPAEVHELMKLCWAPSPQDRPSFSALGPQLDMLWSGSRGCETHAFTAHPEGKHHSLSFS
How it was run: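 Radiometric kinase assay: 0.5 ng JAK3 with 2.5 μg polyGT in Tris pH 7.5/MgCl2 buffer, 1 μM ATP plus 0.25 μCi 33P-γ-ATP, 1% DMSO, 45 min at 30 °C, stopped with phosphoric acid.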

Compound: Cc1cc(C#N)ccc1N(C)c1cc2c(cn1)ncn2C [Compound 31, 3-Methyl-4-(methyl(1-methyl-1H-imidazo[4,5-c]pyridin-6-yl)amino)benzonitrile]
- IC50 (human JAK1): 0.01 to 100 nM
- IC50 (human TYK2): 501 to 1000 nM
- IC50 (human JAK3): > 1000 nM

Compound: CCc1cc(-c2cccnc2)ccc1N(C)c1cc2c(cn1)ncn2C [Compound 94, N-(2-ethyl-4-(pyridin-3-yl)phenyl)-N,1-dimethyl-1H-imidazo[4,5-c]pyridin-6-amine]
- IC50 (human JAK1): 0.01 to 100 nM
- IC50 (human TYK2): 0.01 to 100 nM
- IC50 (human JAK3): 501 to 1000 nM

Compound: CNC(=O)c1ccc(N(C)c2cc3c(cn2)ncn3C)c(C)c1 [Compound 30, N,3-Dimethyl-4-(methyl(1-methyl-1H-imidazo[4,5-c]pyridin-6-yl)amino)-benzamide]
- IC50 (human JAK1): 101 to 500 nM
- IC50 (human TYK2): > 1000 nM
- IC50 (human JAK3): > 1000 nM

Compound: Cc1ccc(OCc2cccnc2)cc1N(C)c1cc2c(cn1)ncn2C [Compound 61, N,1-dimethyl-N-(2-methyl-5-(pyridin-3-ylmethoxy)phenyl)-1H-imidazo[4,5-c]pyridin-6-amine]
- IC50 (human JAK1): 0.01 to 100 nM
- IC50 (human TYK2): > 1000 nM
- IC50 (human JAK3): > 1000 nM

Compound: COC(=O)c1ccc(N(C)c2cc3c(cn2)ncn3C)c(C)c1 [Compound 27, Methyl 3-methyl-4-(methyl(1-methyl-1H-imidazo[4,5-c]pyridin-6-yl)amino)benzoate]
- IC50 (human JAK1): 101 to 500 nM
- IC50 (human TYK2): > 1000 nM
- IC50 (human JAK3): > 1000 nM

Compound: COc1ccc(COc2ccc(N(C)c3cc4c(cn3)ncn4C)c(C)c2)cc1 [Compound 33, N-(4-(4-Methoxybenzyloxy)-2-methylphenyl)-N,1-dimethyl-1H-imidazo[4,5-c]pyridin-6-amine]
- IC50 (human JAK1): 0.01 to 100 nM
- IC50 (human TYK2): > 1000 nM
- IC50 (human JAK3): > 1000 nM

Compound: Cc1ccc(Oc2ccc(C#N)nc2)cc1N(C)c1cc2c(cn1)ncn2C [Compound 91, 5-(4-methyl-3-(methyl(1-methyl-1H-imidazo[4,5-c]pyridin-6-yl)amino)phenoxy)picolino-nitrile]
- IC50 (human JAK1): 0.01 to 100 nM
- IC50 (human TYK2): > 1000 nM
- IC50 (human JAK3): > 1000 nM

Compound: CCc1cc(C(=O)NCc2ccccc2)ccc1N(C)c1cc2c(cn1)ncn2C [Compound 98, N-benzyl-3-ethyl-4-(methyl(1-methyl-1H-imidazo[4,5-c]pyridin-6-yl)amino)benzamide]
- IC50 (human JAK1): 0.01 to 100 nM
- IC50 (human TYK2): 501 to 1000 nM
- IC50 (human JAK3): 501 to 1000 nM

Compound: CCc1cc(-c2cnc(NC(C)=O)nc2)ccc1N(C)c1cc2c(cn1)ncn2C [Compound 115, N-(5-(3-Ethyl-4-(methyl(1-methyl-1H-imidazo[4,5-c]pyridin-6-yl)amino)phenyl)pyrimidin-2-yl)acetamide]
- IC50 (human JAK1): 0.01 to 100 nM
- IC50 (human TYK2): 0.01 to 100 nM
- IC50 (human JAK3): > 1000 nM

Compound: Cc1cc(C(N)=O)ccc1N(C)c1cc2c(cn1)ncn2C [Compound 32, 3-Methyl-4-(methyl(1-methyl-1H-imidazo[4,5-c]pyridin-6-yl)amino)benzamide]
- IC50 (human JAK1): 0.01 to 100 nM
- IC50 (human TYK2): > 1000 nM
- IC50 (human JAK3): > 1000 nM

Compound: CCc1cc(OC2CCN(S(C)(=O)=O)C2)ccc1N(C)c1cc2c(cn1)ncn2C (stereo not drawn) [Compound 110, N-(2-Ethyl-4-((1-(methylsulfonyl)pyrrolidin-3-yl)oxy)phenyl)-N,1-dimethyl-1H-imidazo[4,5-c]pyridin-6-amine]
- IC50 (human JAK1): 0.01 to 100 nM
- IC50 (human TYK2): 0.01 to 100 nM
- IC50 (human JAK3): 101 to 500 nM

Compound: CCc1cc(Cn2ccnc2)ccc1N(C)c1cc2c(cn1)ncn2C [Compound 111, N-(4-((1H-imidazol-1-yl)methyl)-2-ethylphenyl)-N,1-dimethyl-1H-imidazo[4,5-c]pyridin-6-amine]
- IC50 (human JAK1): 0.01 to 100 nM
- IC50 (human TYK2): 101 to 500 nM
- IC50 (human JAK3): 101 to 500 nM

Compound: CCc1ccccc1N(CC)c1cc2c(cn1)ncn2C [Compound 34, N-Ethyl-N-(2-ethylphenyl)-1-methyl-1H-imidazo[4,5-c]pyridin-6-amine]
- IC50 (human JAK1): 0.01 to 100 nM
- IC50 (human TYK2): 0.01 to 100 nM
- IC50 (human JAK3): 501 to 1000 nM

Compound: COc1ccc(COc2ccc(C)c(N(C)c3cc4c(cn3)ncn4C)c2)cc1 [Compound 43, N-(5-(4-methoxybenzyloxy)-2-methylphenyl)-N,1-dimethyl-1H-imidazo[4,5-c]pyridin-6-amine]
- IC50 (human JAK1): 101 to 500 nM
- IC50 (human TYK2): > 1000 nM
- IC50 (human JAK3): > 1000 nM

Compound: CCc1cc(-c2cncnc2)ccc1N(C)c1cc2c(cn1)ncn2C [Compound 95, N-(2-ethyl-4-(pyrimidin-5-yl)phenyl)-N,1-dimethyl-1H-imidazo[4,5-c]pyridin-6-amine]
- IC50 (human JAK1): 0.01 to 100 nM
- IC50 (human TYK2): 0.01 to 100 nM
- IC50 (human JAK3): > 1000 nM

Compound: CN(c1cc2c(cn1)ncn2C)c1ccccc1OC(F)F [Compound 39, N-(2-(difluoromethoxy)phenyl)-N,1-dimethyl-1H-imidazo[4,5-c]pyridin-6-amine]
- IC50 (human JAK1): 0.01 to 100 nM
- IC50 (human TYK2): 501 to 1000 nM
- IC50 (human JAK3): 501 to 1000 nM

Compound: CN(c1ccc(O)cc1)c1cc2c(cn1)ncn2C [Compound 17, 4-(methyl(1-methyl-1H-imidazo[4,5-c]pyridin-6-yl)amino)phenol]
- IC50 (human JAK1): 0.01 to 100 nM
- IC50 (human TYK2): 101 to 500 nM
- IC50 (human JAK3): > 1000 nM

Compound: CCc1cc(CNS(C)(=O)=O)cc(F)c1N(C)c1cc2c(cn1)ncn2C [Compound 323, N-{3-Ethyl-5-fluoro-4-[methyl-(1-methyl-1H-imidazo[4,5-c]pyridin-6-yl)-amino]-benzyl}-methanesulfonamide]
- IC50 (human JAK1): 0.01 to 100 nM
- IC50 (human TYK2): 0.01 to 100 nM
- IC50 (human JAK3): 0.01 to 100 nM

Compound: CN(c1ccc(CC#N)cc1)c1cc2c(cn1)ncn2C [Compound 26, 2-(4-(Methyl(1-methyl-1H-imidazo[4,5-c]pyridin-6-yl)amino)phenyl)acetonitrile]
- IC50 (human JAK1): 0.01 to 100 nM
- IC50 (human TYK2): 101 to 500 nM
- IC50 (human JAK3): > 1000 nM

More lines, now with the values ahead:

- IC50 (human JAK1): 0.01 to 100 nM
- IC50 (human TYK2): 101 to 500 nM
- IC50 (human JAK3): > 1000 nM
Compound: CCc1cc(C#N)cc(F)c1N(C)c1cc2c(cn1)ncn2C [Compound 322, 3-Ethyl-5-fluoro-4-[methyl-(1-methyl-M-imidazo[4,5-c]pyridin-6-yl)-amino]-benzonitrile]

- IC50 (human JAK1): 0.01 to 100 nM
- IC50 (human TYK2): 0.01 to 100 nM
- IC50 (human JAK3): 101 to 500 nM
Compound: CCc1cc(-c2cnn(C)c2)ccc1N(C)c1cc2c(cn1)ncn2C [Compound 93, N-(2-Ethyl-4-(1-methyl-1H-pyrazol-4-yl)phenyl)-N,1-dimethyl-1H-imidazo[4,5-d]pyridin-6-amine]

- IC50 (human JAK1): 0.01 to 100 nM
- IC50 (human TYK2): 501 to 1000 nM
- IC50 (human JAK3): > 1000 nM
Compound: CCc1cc(C2CN(S(C)(=O)=O)C2)ncc1N(C)c1cc2c(cn1)ncn2C [Compound 328, [4-Ethyl-6-(1-methanesulfonyl-azetidin-3-yl)-pyridin-3-yl]-methyl-(1-methyl-1H-imidazo[4,5-c]pyridin-6-yl)-amine]

- IC50 (human JAK1): 0.01 to 100 nM
- IC50 (human TYK2): 0.01 to 100 nM
- IC50 (human JAK3): 101 to 500 nM
Compound: CCc1cc(O)ccc1N(C)c1cc2c(cn1)ncn2C [Compound 107, 3-ethyl-4-(methyl(1-methyl-1H-imidazo[4,5-c]pyridin-6-yl)amino)phenol]

- IC50 (human JAK1): 0.01 to 100 nM
- IC50 (human TYK2): 0.01 to 100 nM
- IC50 (human JAK3): 101 to 500 nM
Compound: CCc1cc(COC)ccc1N(C)c1cc2c(cn1)ncn2C [Compound 105, N-(2-Ethyl-4-(methoxymethyl)phenyl)-N,1-dimethyl-1H-imidazo[4,5-c]pyridin-6-amine]

- IC50 (human JAK1): 0.01 to 100 nM
- IC50 (human TYK2): 0.01 to 100 nM
- IC50 (human JAK3): 0.01 to 100 nM
Compound: CCc1cc(-c2ccc(Cl)s2)ncc1N(C)c1cc2c(cn1)ncn2C [Compound 304, [6-(5-Chloro-thiophen-2-yl)-4-ethyl-pyridin-3-yl]-methyl-(1-methyl-1H-imidazo[4,5-c]pyridin-6-yl)-amine]

- IC50 (human JAK1): 0.01 to 100 nM
- IC50 (human TYK2): 501 to 1000 nM
- IC50 (human JAK3): > 1000 nM
Compound: CCc1cc(C2CN(CC#N)C2)ncc1N(C)c1cc2c(cn1)ncn2C [Compound 331, (3-{4-Ethyl-5-[methyl-(1-methyl-1H-imidazo[4,5-c]pyridin-6-yl)-amino]-pyridin-2-yl}-azetidin-1-yl)-acetonitrile]

- IC50 (human JAK1): 0.01 to 100 nM
- IC50 (human TYK2): 101 to 500 nM
- IC50 (human JAK3): > 1000 nM
Compound: CCc1ccc(C#N)cc1N(C)c1cc2c(cn1)ncn2C [Compound 83, 4-ethyl-3-(methyl(1-methyl-1H-imidazo[4,5-c]pyridin-6-yl)amino)benzonitrile]

- IC50 (human JAK1): 0.01 to 100 nM
- IC50 (human TYK2): 101 to 500 nM
- IC50 (human JAK3): 501 to 1000 nM
Compound: Cc1cc(OCC#N)ccc1N(C)c1cc2c(cn1)ncn2C [Compound 47, 2-(3-methyl-4-(methyl(1-methyl-1H-imidazo[4,5-c]pyridin-6-yl)amino)phenoxy)acetoni-trile]

- IC50 (human JAK1): 0.01 to 100 nM
- IC50 (human TYK2): 0.01 to 100 nM
- IC50 (human JAK3): 101 to 500 nM
Compound: CCc1cc(CO)ccc1N(C)c1cc2c(cn1)ncn2C [Compound 81, (3-Ethyl-4-(methyl(1-methyl-1H-imidazo[4,5-c]pyridin-6-yl)amino)phenyl)MeOH]

- IC50 (human JAK1): 0.01 to 100 nM
- IC50 (human TYK2): > 1000 nM
- IC50 (human JAK3): > 1000 nM
Compound: CCc1cc(C2CN(S(=O)(=O)C(C)C)C2)ncc1N(C)c1cc2c(cn1)ncn2C [Compound 330, {4-Ethyl-6-[1-(propane-2-sulfonyl)-azetidin-3-yl]-pyridin-3-yl}-methyl-(1-methyl-1H-imidazo[4,5-c]pyridin-6-yl)-amine]
